In ChEMBL document CHEMBL1133498, “QSAR of 1,1'-(1,2-ethylenebisbenzyl)bis(4-substitutedpyridinium) dibromides as choline kinase inhibitors: a different approach for antiproliferative drug design” (Bioorg Med Chem Lett, 2000):
pIC50: −log10 of the molar value.

What follows are compounds tested on HT-29 (assay: Compound was tested in vitro for antiproliferative activity against human HT-29 cell line).
Format: functional, cell-based

| SMILES | pIC50 |
| --- | --- |
| c1cc(C[n+]2ccc(N3CCCCC3)cc2)ccc1CCc1ccc(C[n+]2ccc(N3CCCCC3)cc2)cc1 | 6.40 |
| Nc1cc[n+](Cc2ccc(CCc3ccc(C[n+]4ccc(N)cc4)cc3)cc2)cc1 | 5.40 |
| CN(C)c1cc[n+](Cc2ccc(CCc3ccc(C[n+]4ccc(N(C)C)cc4)cc3)cc2)cc1 | 5.70 |
| c1cc(C[n+]2ccc(N3CCCCCC3)cc2)ccc1CCc1ccc(C[n+]2ccc(N3CCCCCC3)cc2)cc1 | 6.40 |
| OCc1cc[n+](Cc2ccc(CCc3ccc(C[n+]4ccc(CO)cc4)cc3)cc2)cc1 | < 4.00 |
| O=C(O)c1cc[n+](Cc2ccc(CCc3ccc(C[n+]4ccc(C(=O)O)cc4)cc3)cc2)cc1 | < 3.00 |
| C=CCN(CC=C)c1cc[n+](Cc2ccc(CCc3ccc(C[n+]4ccc(N(CC=C)CC=C)cc4)cc3)cc2)cc1 | 6.26 |
| N#Cc1cc[n+](Cc2ccc(CCc3ccc(C[n+]4ccc(C#N)cc4)cc3)cc2)cc1 | 3.70 |
| Cc1cc[n+](Cc2ccc(CCc3ccc(C[n+]4ccc(C)cc4)cc3)cc2)cc1 | 4.70 |
| c1cc(C[n+]2ccc(N3CCCC3)cc2)ccc1CCc1ccc(C[n+]2ccc(N3CCCC3)cc2)cc1 | 6.00 |
| C[N+]1(C)CCOC(O)(c2ccc(-c3ccc(C4(O)C[N+](C)(C)CCO4)cc3)cc2)C1 (stereo unspecified) [HEMICHOLINIUM-3] | 2.60 |
